{"source": "ChEMBL document CHEMBL1156369", "about": "“New acetophenone glucosides isolated from extracts of Helichrysum italicum with antiinflammatory activity” (2001)", "note": "The source made the active and inactive calls. The calls are words filed in the database; no cut-off is given here.", "data": [{"system": "Mus musculus", "assay": "Antiinflammatory activity against TPA-induced ear edema in mouse assessed per ear drug treated topically", "type": "functional", "units": {"ID50": "µmol"}, "values": [{"smiles": "C=C(C)C(O)Cc1cc(C(C)=O)ccc1O", "note": "(stereo not drawn)", "ID50": 0.63}]}, {"system": "Mus musculus", "assay": "Antiinflammatory activity against TPA-induced ear edema in mouse at 0.5 mg/ear topically", "type": "functional", "values": [{"smiles": "Cc1occc(=O)c1O[C@@H]1O[C@H](CO)[C@@H](O)[C@H](O)[C@H]1O", "Activity": "inactive"}, {"smiles": "CC(=O)c1ccc(O[C@@H]2O[C@H](CO)[C@@H](O)[C@H](O)[C@H]2O)c(CCO)c1", "Activity": "inactive"}, {"smiles": "C=C(CO[C@@H]1O[C@H](CO)[C@@H](O)[C@H](O)[C@H]1O)[C@@H]1Cc2cc(C(C)=O)ccc2O1", "Activity": "inactive"}, {"smiles": "C=C(C)C(O)Cc1cc(C(C)=O)ccc1O", "note": "(stereo not drawn)", "Activity": "68%"}, {"smiles": "CC(=O)c1ccc(O)c(CC=C(C)C)c1", "Activity": "inactive"}, {"smiles": "C=C(CO)[C@@H]1Cc2cc(C(C)=O)ccc2O1", "note": "[BITALIN A]", "Activity": "50%"}, {"smiles": "CC(=O)c1ccc(O[C@@H]2O[C@H](CO)[C@@H](O)[C@H](O)[C@H]2O)c(CC=C(C)C)c1", "Activity": "inactive"}]}]}
